Experimental data as given in the NIST ThermoML archive (doi:10.1016/j.jct.2007.05.008).

Assay: mn = molality of the nth substance listed, in mol/kg
Conditions: 350 kPa, Liquid; for apparent molar heat capacity: Extra sensitive DSC

[I-].[K+] [potassium iodide] + O
Conditions | apparent molar heat capacity [J/K/mol] | mass density [kg/m3]
278.15 K, m1 = 0.0151 | – | 1001.67
278.15 K, m1 = 0.0299 | – | 1003.68
278.15 K, m1 = 0.0701 | – | 1008.43
278.15 K, m1 = 0.2001 | – | 1024.58
278.15 K, m1 = 0.5376 | – | 1064.35
278.15 K, m1 = 0.6957 | – | 1081.95
278.15 K, m1 = 1.001 | – | 1117.05
278.15 K, m1 = 2.5 | – | 1271.29
278.15 K, m1 = 4.636 | – | 1453.94
278.15 K, m1 = 5.479 | – | 1515.42
278.15 K, m1 = 7.501 | – | 1648.17
283.15 K, m1 = 0.0151 | – | 1001.47
283.15 K, m1 = 0.0299 | – | 1003.4
283.15 K, m1 = 0.0701 | – | 1008.17
283.15 K, m1 = 0.2001 | – | 1024.09
283.15 K, m1 = 0.5376 | – | 1063.61
283.15 K, m1 = 0.6957 | – | 1081.08
283.15 K, m1 = 1.001 | – | 1115.82
283.15 K, m1 = 2.5 | – | 1268.99
283.15 K, m1 = 4.636 | – | 1450.65
283.15 K, m1 = 5.479 | – | 1512.83
283.15 K, m1 = 7.501 | – | 1645.23
288.15 K, m1 = 0.0151 | – | 1000.88
288.15 K, m1 = 0.0299 | – | 1002.77
288.15 K, m1 = 0.0701 | – | 1007.55
288.15 K, m1 = 0.2001 | – | 1023.33
288.15 K, m1 = 0.5376 | – | 1062.62
288.15 K, m1 = 0.6957 | – | 1080.04
288.15 K, m1 = 1.001 | – | 1114.31
288.15 K, m1 = 2.5 | – | 1266.38
288.15 K, m1 = 4.636 | – | 1448.01
288.15 K, m1 = 5.479 | – | 1510.11
288.15 K, m1 = 7.501 | – | 1642.29
298.15 K, m1 = 0.0151 | – | 998.82
298.15 K, m1 = 0.0299 | – | 1000.63
298.15 K, m1 = 0.0701 | – | 1005.39
298.15 K, m1 = 0.2001 | – | 1021
298.15 K, m1 = 0.5376 | – | 1059.83
298.15 K, m1 = 0.6957 | – | 1077.25
298.15 K, m1 = 1.001 | – | 1110.96
298.15 K, m1 = 2.5 | – | 1261.31
298.15 K, m1 = 4.636 | – | 1441.32
298.15 K, m1 = 5.479 | – | 1503.36
298.15 K, m1 = 7.501 | – | 1635.01
303.15 K, m1 = 5.479 | 1.3 | –
308.15 K, m1 = 0.0151 | – | 995.79
308.15 K, m1 = 0.0299 | – | 997.53
308.15 K, m1 = 0.0701 | – | 1002.28
308.15 K, m1 = 0.2001 | – | 1017.73
308.15 K, m1 = 0.5376 | – | 1056.13
308.15 K, m1 = 0.6957 | – | 1073.61
308.15 K, m1 = 1.001 | – | 1106.78
308.15 K, m1 = 2.5 | – | 1255.84
308.15 K, m1 = 4.001 | 0.4 | –
308.15 K, m1 = 4.636 | – | 1434.16
308.15 K, m1 = 5.479 | 1.8 | 1495.89
308.15 K, m1 = 7.501 | – | 1626.88
313.15 K, m1 = 4.001 | 1.4 | –
313.15 K, m1 = 5.479 | 1.7 | –
318.15 K, m1 = 0.0151 | – | 991.94
318.15 K, m1 = 0.0299 | – | 993.68
318.15 K, m1 = 0.0701 | – | 998.38
318.15 K, m1 = 0.2001 | – | 1013.67
318.15 K, m1 = 0.5376 | – | 1051.77
318.15 K, m1 = 0.6957 | – | 1069.13
318.15 K, m1 = 1.001 | – | 1101.94
318.15 K, m1 = 2.5 | – | 1249.89
318.15 K, m1 = 4.001 | 1.9 | –
318.15 K, m1 = 4.636 | – | 1426.64
318.15 K, m1 = 5.479 | 1.2 | 1488.09
318.15 K, m1 = 7.501 | – | 1618.36
323.15 K, m1 = 4.001 | 2 | –
323.15 K, m1 = 5.479 | 0.4 | –
328.15 K, m1 = 0.0151 | – | 987.43
328.15 K, m1 = 0.0299 | – | 989.17
328.15 K, m1 = 0.0701 | – | 993.85
328.15 K, m1 = 0.2001 | – | 1008.93
328.15 K, m1 = 0.5376 | – | 1046.78
328.15 K, m1 = 0.6957 | – | 1064
328.15 K, m1 = 1.001 | – | 1096.55
328.15 K, m1 = 2.5 | – | 1243.46
328.15 K, m1 = 4.001 | 1.7 | –
328.15 K, m1 = 4.636 | – | 1418.83
328.15 K, m1 = 5.479 | – | 1479.85
328.15 K, m1 = 7.501 | – | 1609.25
333.15 K, m1 = 4.001 | 1.3 | –
338.15 K, m1 = 0.0151 | – | 982.32
338.15 K, m1 = 0.0299 | – | 984.03
338.15 K, m1 = 0.0701 | – | 988.65
338.15 K, m1 = 0.2001 | – | 1003.58
338.15 K, m1 = 0.5376 | – | 1041.14
338.15 K, m1 = 0.6957 | – | 1058.16
338.15 K, m1 = 1.001 | – | 1090.66
338.15 K, m1 = 2.5 | – | 1236.58
338.15 K, m1 = 4.001 | 0.6 | –
338.15 K, m1 = 4.636 | – | 1410.65
338.15 K, m1 = 5.479 | – | 1471.57
338.15 K, m1 = 7.501 | – | 1600.65
348.15 K, m1 = 0.0151 | – | 976.56
348.15 K, m1 = 0.0299 | – | 978.32
348.15 K, m1 = 0.0701 | – | 982.92
348.15 K, m1 = 0.2001 | – | 997.75
348.15 K, m1 = 0.5376 | – | 1035.02
348.15 K, m1 = 0.6957 | – | 1051.97
348.15 K, m1 = 1.001 | – | 1084.3
348.15 K, m1 = 2.5 | – | 1229.37
348.15 K, m1 = 4.636 | – | 1402.31
348.15 K, m1 = 5.479 | – | 1463.16
348.15 K, m1 = 7.501 | – | 1591.74
358.15 K, m1 = 0.0151 | – | 970.33
358.15 K, m1 = 0.0299 | – | 972.11
358.15 K, m1 = 0.0701 | – | 976.68
358.15 K, m1 = 0.2001 | – | 991.55
358.15 K, m1 = 0.5376 | – | 1028.65
358.15 K, m1 = 0.6957 | – | 1045.42
358.15 K, m1 = 1.001 | – | 1077.52
358.15 K, m1 = 2.5 | – | 1221.83
358.15 K, m1 = 4.636 | – | 1393.66
358.15 K, m1 = 5.479 | – | 1455.05
358.15 K, m1 = 7.501 | – | 1583.19
368.15 K, m1 = 0.0151 | – | 963.58
368.15 K, m1 = 0.0299 | – | 965.34
368.15 K, m1 = 0.0701 | – | 969.93
368.15 K, m1 = 0.2001 | – | 984.74
368.15 K, m1 = 0.5376 | – | 1021.81
368.15 K, m1 = 0.6957 | – | 1038.47
368.15 K, m1 = 1.001 | – | 1070.31
368.15 K, m1 = 2.5 | – | 1213.99
368.15 K, m1 = 4.636 | – | 1384.78
368.15 K, m1 = 5.479 | – | 1446.45
368.15 K, m1 = 7.501 | – | 1574.23
